One assay concerns the target PI3K-alpha (Homo sapiens, UniProt P42336). The assay can be described thus: Kinase inhibition assay, P-33 labelled ATP phosphate transfer, PI3K-alpha. The assay is classed as biochemical. Conditions: for inhibition at 0.3 µM: read-out: PI3K-alpha (% Inh at 300 nM). On the procedure: (§1) The assays determined the amount of radioactive phosphate transferred from P-33 labelled ATP to the substrate by the enzyme in the presence of various concentrations of the inhibitor test compounds. […] After this time period the cells were serum starved for 5 hours followed by application of the test compound. Test compound was added as a DMSO (dimethyl sulfoxide) solution such that the final DMSO concentration in the cell media was less than or equal to 0.2% by volume. After 30 minutes of exposure the growth factor stimulant, human IGF-1 (Pepro Tech, Inc., Rocky Hill, N.J., Cat.#100-11), was added in each well. […] A SpectraMax Plus spectrophotometric plate reader (Molecular Devices, Sunnydale, Calif.) was used to measure the optical density signal for pAKT at 450 nm (OD450 nm). The pAKT OD450 nm readings were normalized by total protein amount in the cell lysates determined by standard methods. Concentrations of test compounds required to inhibit IGF stimulated pAKT levels to 50% of maximum levels in PC3 cells (termed DM50 for decreased maximum 50%) were calculated by inputting the dose responses in the software package GraphPad Prism4 (GraphPad Software, Inc., San Diego, Calif.).

The next assay relates to PC3 cells. The assay can be described thus: PC3 cell proliferation (WST, 72 hours). The assay is classed as cell-based. Conditions: Homo sapiens, read-out: PC3 cell proliferation(IC50 μM). On the procedure:
The PC3 cell proliferation data in column 26 of Table 5 was obtained as follows: PC3 cells were obtained from the American Type Culture Collection (ATCC, Manassas, Va., Cat.#CRL-1435). Two thousand cells from the prostate cancer line PC3 were placed in 50 μL of complete RPMI 1640 media (Invitrogen, Carlsbad, Calif., Cat.#22400-105) with 10% fetal bovine serum, (Invitrogen, Carlsbad, Calif., Cat.#10438-026) into each well of 96-well cell culture plates in a hexaplicate sampling pattern. A 50 μL aliquot of test compound (prepared from stock test compounds in DMSO diluted into media) was added to the appropriate well such that the final concentrations of test compound were 200, 40, 8, 1.6, 0.32, 0.064, 0.0128, 0.00256, and 0 μM and the final DMSO concentration was less than or equal to 0.2% . The plates were incubated for 72 hours 37° C. in an atmosphere of 5% CO2. At the end of this time a 10 μL aliquot of WST solution (Roche Applied Science, Mannheim, Germany) was added into each of the wells. Cells were exposed to the WST solution for 4 hours. A SpectraMax Plus spectrophotometric plate reader (Molecular Devices, Sunnydale, Calif.) was then used to measure the optical density at 450 nm (OD450 nm). Sigmoidal curves were drawn for the dose responses and IC50 values were calculated using the software package GraphPad Prism4 (GraphPad Software, Inc., San Diego, Calif.).

In another assay the target is DNA-PK (Homo sapiens, UniProt P78527). Kind of assay: Kinase inhibition assay, P-33 labelled ATP phosphate transfer, DNA-PK. The assay is classed as biochemical. Conditions: for inhibition at 0.3 µM: read-out: DNA-PK(% Inh at 300 nM). The protocol:
as §1

The next assay deals with PI3K-gamma (Homo sapiens, UniProt P48736). The assay can be described thus: Kinase inhibition assay, P-33 labelled ATP phosphate transfer, PI3K-gamma. The format is biochemical. The settings on record: for inhibition at 10 µM: read-out: PI3K-gamma(% Inh at 10 μM); for inhibition at 0.3 µM: read-out: PI3K-gamma(% Inh at 300 nM). On the procedure: as §1
Another assay has as its target PIM-1 (Homo sapiens, UniProt P11309). The assay can be described thus: Kinase inhibition assay, P-33 labelled ATP phosphate transfer, PIM-1. The assay is classed as biochemical. The settings on record: for inhibition at 10 µM: read-out: PIM-1(% Inh at 10 μM); for inhibition at 0.3 µM: read-out: PIM-1(% Inh at 300 nM). The protocol:
as §1

The target in another assay is mTOR (Homo sapiens, UniProt P42345). The assay can be described thus: Kinase inhibition assay, P-33 labelled ATP phosphate transfer, mTOR. Conditions: for inhibition at 10 µM: read-out: mTOR(% Inh at 10 μM); for inhibition at 0.3 µM: read-out: mTOR(% Inh at 300 nM). The assay is classed as biochemical. On the procedure: as §1
A further assay has as its target PI3K-beta (Homo sapiens, UniProt P42338). Kind of assay: Kinase inhibition assay, P-33 labelled ATP phosphate transfer, PI3K-beta. The format is biochemical. The settings on record: for inhibition at 10 µM: read-out: PI3K-beta(% Inh at 10 μM); for inhibition at 0.3 µM: read-out: PI3K-beta(% Inh at 300 nM). On the procedure: as §1
For the next assay, the target named is PI3K-delta (Homo sapiens, UniProt O00329). The assay can be described thus: Kinase inhibition assay, P-33 labelled ATP phosphate transfer, PI3K-delta. The format is biochemical. Conditions: for inhibition at 10 µM: read-out: PI3K-delta(% Inh at 10 μM); for inhibition at 0.3 µM: read-out: PI3K-delta(% Inh at 300 nM). On the procedure: as §1
A further assay deals with PLK-1 (Homo sapiens, UniProt P53350). Kind of assay: Kinase inhibition assay, P-33 labelled ATP phosphate transfer, PLK-1. The assay is classed as biochemical. Conditions: for inhibition at 10 µM: read-out: PLK-1(% Inh at 10 μM); for inhibition at 0.3 µM: read-out: PLK-1(% Inh at 300 nM). The protocol:
as §1

Read-outs that look alike come from different tables or passages of the source.

Our source for the inhibition and IC50 values is patent US10174032B2, “Heterocyclic compound classes for signaling modulation” (SignalRx Pharmaceuticals, Inc., priority 2014, dated 2019).

PLK-1, sequence (P53350 whole entry, species assumed): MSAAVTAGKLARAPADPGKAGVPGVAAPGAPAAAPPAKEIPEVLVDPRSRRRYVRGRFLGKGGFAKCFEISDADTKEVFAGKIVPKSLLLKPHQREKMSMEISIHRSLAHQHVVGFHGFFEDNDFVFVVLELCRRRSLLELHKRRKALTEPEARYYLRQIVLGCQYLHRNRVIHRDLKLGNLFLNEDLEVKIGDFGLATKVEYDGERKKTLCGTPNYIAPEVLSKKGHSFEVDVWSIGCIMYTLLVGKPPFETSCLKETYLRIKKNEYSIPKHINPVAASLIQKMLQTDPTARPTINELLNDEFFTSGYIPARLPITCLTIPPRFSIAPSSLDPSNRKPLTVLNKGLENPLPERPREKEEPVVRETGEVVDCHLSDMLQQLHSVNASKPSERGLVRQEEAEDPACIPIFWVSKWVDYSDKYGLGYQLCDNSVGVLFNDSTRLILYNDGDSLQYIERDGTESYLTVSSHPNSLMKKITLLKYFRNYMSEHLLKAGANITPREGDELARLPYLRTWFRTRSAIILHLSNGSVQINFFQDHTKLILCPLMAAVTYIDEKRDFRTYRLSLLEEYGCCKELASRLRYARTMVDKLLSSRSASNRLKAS
PI3K-beta, sequence (P42338 whole entry, species assumed): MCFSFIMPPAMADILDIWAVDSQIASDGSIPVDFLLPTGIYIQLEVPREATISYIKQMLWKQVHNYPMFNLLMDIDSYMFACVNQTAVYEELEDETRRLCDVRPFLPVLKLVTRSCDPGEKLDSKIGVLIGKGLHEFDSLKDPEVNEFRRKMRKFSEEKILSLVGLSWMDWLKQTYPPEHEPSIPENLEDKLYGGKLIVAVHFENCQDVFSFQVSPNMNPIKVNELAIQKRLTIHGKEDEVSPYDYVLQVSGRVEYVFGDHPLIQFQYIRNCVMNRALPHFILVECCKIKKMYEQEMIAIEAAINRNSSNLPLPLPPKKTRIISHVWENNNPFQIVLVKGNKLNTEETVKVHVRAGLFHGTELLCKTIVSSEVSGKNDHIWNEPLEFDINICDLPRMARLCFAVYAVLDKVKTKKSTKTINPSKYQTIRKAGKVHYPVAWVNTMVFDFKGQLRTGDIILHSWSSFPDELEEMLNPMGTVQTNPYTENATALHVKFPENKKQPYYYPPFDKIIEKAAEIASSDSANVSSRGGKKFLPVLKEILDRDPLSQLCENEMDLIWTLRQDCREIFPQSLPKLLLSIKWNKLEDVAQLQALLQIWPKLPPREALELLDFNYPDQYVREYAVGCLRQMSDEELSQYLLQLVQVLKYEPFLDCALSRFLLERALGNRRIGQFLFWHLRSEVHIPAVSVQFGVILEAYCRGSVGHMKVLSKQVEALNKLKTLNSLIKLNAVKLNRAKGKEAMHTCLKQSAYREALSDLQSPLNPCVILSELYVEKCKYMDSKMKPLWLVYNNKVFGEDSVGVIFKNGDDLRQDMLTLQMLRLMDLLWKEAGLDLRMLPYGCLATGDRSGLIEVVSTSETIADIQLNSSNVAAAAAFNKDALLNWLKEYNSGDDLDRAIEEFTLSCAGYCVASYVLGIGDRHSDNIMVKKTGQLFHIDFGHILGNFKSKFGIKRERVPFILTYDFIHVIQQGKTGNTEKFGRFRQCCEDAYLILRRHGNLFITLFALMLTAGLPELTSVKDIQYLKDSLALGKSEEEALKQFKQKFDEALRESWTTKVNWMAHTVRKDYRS
PI3K-beta, sequence (P27986 whole entry partner, species assumed): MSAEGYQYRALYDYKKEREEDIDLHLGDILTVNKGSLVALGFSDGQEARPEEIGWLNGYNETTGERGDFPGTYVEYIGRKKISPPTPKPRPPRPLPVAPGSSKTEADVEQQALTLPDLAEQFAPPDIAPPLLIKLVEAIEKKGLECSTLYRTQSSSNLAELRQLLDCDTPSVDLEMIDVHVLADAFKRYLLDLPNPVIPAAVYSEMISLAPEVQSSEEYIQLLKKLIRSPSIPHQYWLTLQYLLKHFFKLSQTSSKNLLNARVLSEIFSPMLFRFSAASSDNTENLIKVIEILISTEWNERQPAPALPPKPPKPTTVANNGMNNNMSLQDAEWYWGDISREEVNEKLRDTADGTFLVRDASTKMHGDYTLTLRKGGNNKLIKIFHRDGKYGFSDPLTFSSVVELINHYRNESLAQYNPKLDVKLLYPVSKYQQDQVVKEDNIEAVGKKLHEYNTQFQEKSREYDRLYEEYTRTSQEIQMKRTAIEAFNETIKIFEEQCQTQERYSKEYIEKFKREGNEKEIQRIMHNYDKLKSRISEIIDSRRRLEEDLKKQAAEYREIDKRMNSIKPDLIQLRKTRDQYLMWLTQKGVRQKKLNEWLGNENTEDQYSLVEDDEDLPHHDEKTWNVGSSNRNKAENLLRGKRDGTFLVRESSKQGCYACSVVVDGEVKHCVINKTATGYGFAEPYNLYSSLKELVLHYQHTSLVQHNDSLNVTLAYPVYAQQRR
PI3K-gamma, sequence (P48736 whole entry, species assumed): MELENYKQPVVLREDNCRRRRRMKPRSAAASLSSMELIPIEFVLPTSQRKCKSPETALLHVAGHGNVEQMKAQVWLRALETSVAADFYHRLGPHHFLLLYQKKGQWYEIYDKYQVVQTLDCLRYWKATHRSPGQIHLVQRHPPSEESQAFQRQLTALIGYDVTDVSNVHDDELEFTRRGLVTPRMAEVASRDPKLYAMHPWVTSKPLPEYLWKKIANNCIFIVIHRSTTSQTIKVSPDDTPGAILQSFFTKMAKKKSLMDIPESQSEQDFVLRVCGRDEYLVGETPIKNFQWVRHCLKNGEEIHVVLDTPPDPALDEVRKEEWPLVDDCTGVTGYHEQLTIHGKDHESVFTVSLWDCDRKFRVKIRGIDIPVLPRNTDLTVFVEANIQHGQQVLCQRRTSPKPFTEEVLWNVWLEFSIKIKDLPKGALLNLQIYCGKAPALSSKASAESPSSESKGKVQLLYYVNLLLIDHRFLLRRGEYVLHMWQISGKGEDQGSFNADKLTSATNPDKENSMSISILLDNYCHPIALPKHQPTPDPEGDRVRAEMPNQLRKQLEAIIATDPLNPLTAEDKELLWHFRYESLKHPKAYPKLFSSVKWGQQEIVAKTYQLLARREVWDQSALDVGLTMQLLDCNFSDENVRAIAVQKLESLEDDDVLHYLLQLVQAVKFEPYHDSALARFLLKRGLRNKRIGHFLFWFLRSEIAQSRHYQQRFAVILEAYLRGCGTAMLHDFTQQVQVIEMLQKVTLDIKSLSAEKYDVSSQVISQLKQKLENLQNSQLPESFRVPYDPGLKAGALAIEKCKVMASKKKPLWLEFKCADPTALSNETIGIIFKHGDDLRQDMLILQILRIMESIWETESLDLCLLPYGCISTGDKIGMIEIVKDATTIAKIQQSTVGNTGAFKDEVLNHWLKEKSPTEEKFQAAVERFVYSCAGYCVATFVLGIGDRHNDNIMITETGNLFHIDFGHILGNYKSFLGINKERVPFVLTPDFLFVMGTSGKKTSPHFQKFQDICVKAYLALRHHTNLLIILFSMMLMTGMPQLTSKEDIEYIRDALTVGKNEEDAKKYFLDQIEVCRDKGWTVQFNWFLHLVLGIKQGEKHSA
PI3K-delta, sequence (O00329 whole entry, species assumed): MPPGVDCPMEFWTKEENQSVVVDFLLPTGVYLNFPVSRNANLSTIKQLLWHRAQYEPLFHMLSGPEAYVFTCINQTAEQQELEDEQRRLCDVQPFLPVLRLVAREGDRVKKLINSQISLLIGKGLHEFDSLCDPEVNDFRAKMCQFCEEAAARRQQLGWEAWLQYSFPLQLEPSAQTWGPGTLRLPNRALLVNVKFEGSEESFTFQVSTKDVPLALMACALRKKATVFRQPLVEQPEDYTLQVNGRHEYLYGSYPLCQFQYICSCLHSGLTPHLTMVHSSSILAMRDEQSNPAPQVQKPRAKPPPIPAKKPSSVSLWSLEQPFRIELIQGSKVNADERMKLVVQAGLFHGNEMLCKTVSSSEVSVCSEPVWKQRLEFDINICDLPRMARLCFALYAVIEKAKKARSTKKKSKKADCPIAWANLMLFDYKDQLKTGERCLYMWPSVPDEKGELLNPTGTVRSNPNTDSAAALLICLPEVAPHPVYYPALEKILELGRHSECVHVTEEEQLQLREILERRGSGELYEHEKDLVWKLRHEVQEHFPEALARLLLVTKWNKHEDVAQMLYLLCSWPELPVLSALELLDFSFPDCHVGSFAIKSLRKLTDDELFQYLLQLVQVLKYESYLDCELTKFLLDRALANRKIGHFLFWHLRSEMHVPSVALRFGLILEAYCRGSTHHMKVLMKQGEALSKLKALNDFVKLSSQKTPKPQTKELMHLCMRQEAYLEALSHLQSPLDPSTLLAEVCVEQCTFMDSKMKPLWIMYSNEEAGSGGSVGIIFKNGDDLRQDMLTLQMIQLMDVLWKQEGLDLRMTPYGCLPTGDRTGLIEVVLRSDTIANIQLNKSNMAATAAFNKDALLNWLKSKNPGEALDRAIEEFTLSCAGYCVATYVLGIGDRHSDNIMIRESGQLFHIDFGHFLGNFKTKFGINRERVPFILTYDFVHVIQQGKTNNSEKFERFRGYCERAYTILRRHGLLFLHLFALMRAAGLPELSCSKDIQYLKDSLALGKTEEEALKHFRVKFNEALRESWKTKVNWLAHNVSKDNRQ
PI3K-delta, sequence (P27986 whole entry partner, species assumed): as the sequence (P27986 whole entry partner, species assumed) above
PIM-1, sequence (P11309 whole entry, species assumed): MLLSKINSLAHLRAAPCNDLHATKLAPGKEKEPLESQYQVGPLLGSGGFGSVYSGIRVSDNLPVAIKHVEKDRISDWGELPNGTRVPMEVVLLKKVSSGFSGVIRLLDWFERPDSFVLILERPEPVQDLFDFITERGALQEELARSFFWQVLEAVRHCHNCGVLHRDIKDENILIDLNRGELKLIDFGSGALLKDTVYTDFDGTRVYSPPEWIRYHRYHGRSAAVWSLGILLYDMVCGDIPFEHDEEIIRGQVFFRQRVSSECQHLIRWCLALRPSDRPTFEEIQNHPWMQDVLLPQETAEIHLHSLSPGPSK

Turning to `O=c1nc(N2CCOCC2)[nH]c2c(-c3ccccc3)csc12` [Compound 5, 2-morpholino-7-phenylthieno[3,2-d]pyrimidin-4(1H)-one], the inhibition at 10 µM on PI3K-alpha (read-out: PI3K-alpha(% Inh at 10 μM)) came out at 12%. Further, the IC50 with PC3 cells (PC-3, PC3 cells, 72 hours, WST) turned out to be 246 µM.

On to `O=c1nc(N2CCOCC2)[nH]c2c1cnn2C1CCCCC1` [Compound 8, 1-cyclohexyl-6-morpholino-1H-pyrazolo[3,4-d]pyrimidin-4(7H)-one], for which the inhibition at 0.3 µM at PI3K-alpha was found to be 2%. For the same compound, the IC50 at DNA-PK was 24 µM. For the same compound, the inhibition at 10 µM at PI3K-gamma amounted to 4.8%; on PIM-1, 3.2%; on mTOR, 11%; on PI3K-beta, 9.2%; at PI3K-delta, 18%; at PLK-1, 3.4%.

Regarding `Cc1nc2c(=O)nc(N3CCOCC3)[nH]c2n1-c1ccccc1` [Compound 11, 8-methyl-2-morpholino-9-phenyl-3H-purin-6(9H)-one], the inhibition at 0.3 µM at PI3K-alpha turned out to be 2.6%; on DNA-PK it was 0%; on PI3K-gamma, 0%; on PIM-1, 0%; at mTOR, 0%; on PI3K-beta, 0%. In addition, the inhibition at 0.3 µM on PI3K-delta came to 32%; on PLK-1 it was 0%.

For `O=c1nc(N2CCOCC2)oc2c(-c3ccc4c(c3)OCCO4)csc12` [Compound 12], the inhibition at 0.3 µM at PI3K-alpha was 53%; at mTOR it was 0%; on PI3K-delta, 72%; on PLK-1 it was 0%. The IC50 in the assay on PC3 cells (PC-3, PC3 cells, 72 hours, WST) was found to be 4.7 µM.

For the compound `COc1cccc(-c2csc3c(=O)nc(N4CCOCC4)oc23)c1` [Compound 13], the inhibition at 0.3 µM was determined as 6.8% at PI3K-alpha, 0% at mTOR, 0% at PI3K-delta and 0% on PLK-1. In addition, the IC50 with PC3 cells (PC-3, 72 h) is 94 µM.

Take `COc1ccc(-c2csc3c(=O)nc(N4CCOCC4)oc23)cc1` [Compound 14]: the inhibition at 0.3 µM on PI3K-alpha came out at 19%; at mTOR, 0%; at PI3K-delta it was 27%; on PLK-1, 0%.

As for `CN(C)c1ccc(-c2csc3c(=O)nc(N4CCOCC4)oc23)cc1` [Compound 15], the inhibition at 0.3 µM on PI3K-alpha was 11%; at mTOR, 0%; on PI3K-delta, 33%; on PLK-1, 0%. Besides, the IC50 in the assay on PC3 cells (PC-3, PC3 cells, 72 hours, WST) was found to be 20 µM.

As for `O=C(NCCN1CCOCC1)c1cccc(-c2csc3c(=O)nc(N4CCOCC4)oc23)c1` [Compound 16], the inhibition at 0.3 µM at PI3K-alpha came to 16%; on mTOR, 0%; on PI3K-delta it was 17%; at PLK-1 it was 0%. Besides, in the assay on PC3 cells (PC-3, PC3 cells, 72 hours, WST), the IC50 worked out at 31 µM.

For `Nc1ccc(-c2csc3c(=O)nc(N4CCOCC4)oc23)cc1` [Compound 17], the inhibition at 0.3 µM on PI3K-alpha worked out at 22%; at mTOR, 0%; on PI3K-delta it was 32%; at PLK-1, 0%. Further, the IC50 in the assay with PC3 cells (PC-3, PC3 cells, 72 hours, WST) came out at 108 µM.

Turning to `O=c1nc(N2CCOCC2)oc2c(-c3cccnc3)csc12` [Compound 18], the inhibition at 0.3 µM on PI3K-alpha, at mTOR, on PI3K-delta and at PLK-1 was 0% throughout.

As for `O=c1nc(N2CCOCC2)oc2c(-c3ccoc3)csc12` [Compound 19], the inhibition at 0.3 µM was 15% on PI3K-alpha, 3% at mTOR, 0% on PI3K-delta and 0% at PLK-1.

For `COc1ccc(C#Cc2csc3c(=O)nc(N4CCOCC4)oc23)cc1` [Compound 20], the inhibition at 0.3 µM on PI3K-alpha, on mTOR, at PI3K-delta and at PLK-1 was 0% each time.

On to `O=c1nc(N2CCOCC2)[nH]c2c1cnn2Cc1ccccc1` [Compound 23], for which, on PI3K-alpha, the inhibition at 0.3 µM worked out at 6.6%. Also, the IC50 against DNA-PK turned out to be 24 µM. Moreover, the inhibition at 10 µM on PI3K-gamma is 15%; on PIM-1, 2.1%; on mTOR, 0%; on PI3K-beta it was 14%; at PI3K-delta, 0%; on PLK-1, 4.9%.

For the compound `O=c1nc(N2CCOCC2)[nH]c2c1cnn2-c1ccccn1` [Compound 25], on PI3K-alpha, the inhibition at 0.3 µM was 6.6%. This compound also returned an IC50 at DNA-PK of 24 µM. Also, the inhibition at 10 µM amounted to 35% on PI3K-gamma; 9.4% at PIM-1; 0% on mTOR; 4.7% at PI3K-beta; 10% on PI3K-delta; 2.6% on PLK-1.

`O=c1nc(N2CCOCC2)[nH]c2c1cnn2CCO` [Compound 26]: the inhibition at 0.3 µM on PI3K-alpha was found to be 9%. The IC50 against DNA-PK was 24 µM. For the same compound, the inhibition at 10 µM was determined as 0.6% on PI3K-gamma; 1.5% on PIM-1; 0.5% at mTOR; 14% on PI3K-beta; 26% at PI3K-delta; 3.3% on PLK-1.

Regarding `O=c1nc(N2CCOCC2)[nH]c2c1cnn2-c1ccc(Cl)cc1` [Compound 28], the inhibition at 0.3 µM at PI3K-alpha turned out to be 6.9%. In addition, the inhibition at 10 µM at PI3K-delta was 0%.

On to `Cc1nc2c(=O)nc(N3CCOCC3)[nH]c2n1Cc1ccccc1` [Compound 29], for which the inhibition at 0.3 µM at PI3K-alpha is 7%; on DNA-PK it was 0%; at PI3K-gamma, 0%; at PIM-1, 0%; on mTOR, 0%; on PI3K-beta, 0%. In addition, the inhibition at 0.3 µM on PI3K-delta and on PLK-1 was 0% each time.

Take `Cc1nc2c(=O)nc(N3CCOCC3)[nH]c2n1-c1ccc(F)cc1` [Compound 30]: the inhibition at 0.3 µM was found to be 4.7% at PI3K-alpha; 0% on DNA-PK; 3% on PI3K-gamma; 0% at PIM-1; 0% at mTOR; 14% on PI3K-beta. Moreover, the inhibition at 0.3 µM on PI3K-delta is 32%; at PLK-1, 0%.

On to `Cc1nc2c(=O)nc(N3CCOCC3)[nH]c2n1-c1ccc2[nH]ccc2c1` [Compound 31], for which the inhibition at 0.3 µM at PI3K-alpha stood at 7.5%; at DNA-PK, 0%; on PI3K-gamma it was 7.5%; on PIM-1, 0%; on mTOR, 0%; on PI3K-beta it was 2.5%. The figures for the inhibition at 0.3 µM at PI3K-delta and at PLK-1 were 8.7% and 0%, respectively.

For the compound `Cc1ccc(-n2c(C)nc3c(=O)nc(N4CCOCC4)[nH]c32)cc1` [Compound 32], the inhibition at 0.3 µM came out at 0% on PI3K-alpha; 0% on DNA-PK; 1% on PI3K-gamma; 0% on PIM-1; 0% at mTOR; 0% on PI3K-beta. Also, the inhibition at 0.3 µM turned out to be 15% on PI3K-delta and 0% at PLK-1.
